Measured values: US20020183279A1, “Pharmaceutical composition containing viscoelastic substance and medication” (Koichiro TANAKA, priority 2001, published 2002)

Tested on: Bacillus substilis (ATCC6633)
Test: Inhibition circle (penicillin cup) measurement of antimicrobial activity changed by viscoelastic substance
Format: cell-based, Bacillus subtilis
Experimental: The activity of an antimicrobial agent changes depending upon a type of viscoelastic substance. Such a change was measured by using Bacillus substilis (ATCC6633 referred to as “B subtilis”) and the following viscoelastic substances: First, B. subtilis (0.1 mL of 1.4×10^8 CFU/ML) was spread on a 4% heart infusion medium. Subsequently, a penicillin cup was placed on the medium, and a test solution was poured in the cup. As test solutions, the following groups were used. 0.1 mL of an antimicrobial agent was added to a penicillin cup. Five concentrations from […] were prepared for each antimicrobial agent; 0.1 mL of a viscoelastic substance was added to a penicillin cup; After 0.1 mL of a viscoelastic substance was added to a penicillin cup and allowed to stand still and then 0.1 mL of 5 or 2.5 μg/mL antimicrobial agent was gently added to the viscoelastic substance layer; and 0.1 mL of a viscoelastic substance and 0.1 mL of 5 or 2.5 μg/mL antimicrobial agent were mixed and added to a penicillin cup. Each group was cultured in an incubator at 35° C. for 24 hours. The size of the inhibition circle of B. subtilis was measured. Based on the measurement results of the single antimicrobial agent group, a curve showing the size of inhibition circle versus the antimicrobial agent concentration (referred to as a standard curve) was obtained with respect to individual antimicrobial agents.

`CCn1cc(C(=O)O)c(=O)c2cc(F)c(N3CCNCC3)cc21` [NFLX, norfloxacin] was tested. Which “activity of the antimicrobial agent compared to the standard curve” value (layered group: NFLX layered on HL, OP or VC) did it give?
Its value is “lower than the standard”.

And the “antimicrobial activity, ranking among viscoelastic substances” value (layered group: NFLX layered on VC)?
Its value is “lowest”.

And the “bacterial proliferation suppression activity compared to the standard curve” value (mixture group: NFLX mixed with HL, OP or VC, FIG. 5)?
Its value is “lower than values of the standard curve but not so significant”.
